Like-named read-outs stand apart in the source and are kept apart here. Residues, ends and D or L forms follow the SMILES beside them.
What was measured:
[1] = target: T1, endogenous IKK immunoprecipitated from HEK293T cells (Homo sapiens, UniProt O14920+O15111); test: In vitro kinase assay with endogenous IKK, inhibition by synthetic peptides; type: biochemical; settings: 500 μM synthetic peptide, 1 μM 6×His-IκBα wt, 30° C.
T1 construct: endogenous canonical IKK, which was immunoprecipitated from HEK293T cells using an anti-NEMO antibody; endogenous in cells; host or cells: HEK293T cells induced with TNFα; anti-NEMO immunoprecipitate on protein G beads
T1 sequence (O14920 whole entry): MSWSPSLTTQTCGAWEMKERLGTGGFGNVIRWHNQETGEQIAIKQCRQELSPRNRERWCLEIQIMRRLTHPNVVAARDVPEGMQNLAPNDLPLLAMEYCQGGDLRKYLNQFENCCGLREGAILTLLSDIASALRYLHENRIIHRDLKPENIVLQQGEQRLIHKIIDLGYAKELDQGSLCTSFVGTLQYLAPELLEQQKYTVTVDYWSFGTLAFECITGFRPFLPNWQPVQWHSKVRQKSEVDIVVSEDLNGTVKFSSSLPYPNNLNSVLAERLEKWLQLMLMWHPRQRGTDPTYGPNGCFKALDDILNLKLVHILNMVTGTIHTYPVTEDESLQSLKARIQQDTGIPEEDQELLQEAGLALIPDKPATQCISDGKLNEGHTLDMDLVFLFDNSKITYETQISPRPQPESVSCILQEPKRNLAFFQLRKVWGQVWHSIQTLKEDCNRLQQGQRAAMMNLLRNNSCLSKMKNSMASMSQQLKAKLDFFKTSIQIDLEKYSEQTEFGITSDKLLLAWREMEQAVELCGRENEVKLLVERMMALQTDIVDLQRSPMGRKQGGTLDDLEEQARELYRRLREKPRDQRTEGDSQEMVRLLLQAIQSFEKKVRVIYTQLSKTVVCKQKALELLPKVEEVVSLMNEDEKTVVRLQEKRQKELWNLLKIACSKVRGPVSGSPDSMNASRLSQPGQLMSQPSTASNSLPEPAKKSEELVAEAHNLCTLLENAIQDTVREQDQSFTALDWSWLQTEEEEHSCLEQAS
T1 sequence (O15111 whole entry): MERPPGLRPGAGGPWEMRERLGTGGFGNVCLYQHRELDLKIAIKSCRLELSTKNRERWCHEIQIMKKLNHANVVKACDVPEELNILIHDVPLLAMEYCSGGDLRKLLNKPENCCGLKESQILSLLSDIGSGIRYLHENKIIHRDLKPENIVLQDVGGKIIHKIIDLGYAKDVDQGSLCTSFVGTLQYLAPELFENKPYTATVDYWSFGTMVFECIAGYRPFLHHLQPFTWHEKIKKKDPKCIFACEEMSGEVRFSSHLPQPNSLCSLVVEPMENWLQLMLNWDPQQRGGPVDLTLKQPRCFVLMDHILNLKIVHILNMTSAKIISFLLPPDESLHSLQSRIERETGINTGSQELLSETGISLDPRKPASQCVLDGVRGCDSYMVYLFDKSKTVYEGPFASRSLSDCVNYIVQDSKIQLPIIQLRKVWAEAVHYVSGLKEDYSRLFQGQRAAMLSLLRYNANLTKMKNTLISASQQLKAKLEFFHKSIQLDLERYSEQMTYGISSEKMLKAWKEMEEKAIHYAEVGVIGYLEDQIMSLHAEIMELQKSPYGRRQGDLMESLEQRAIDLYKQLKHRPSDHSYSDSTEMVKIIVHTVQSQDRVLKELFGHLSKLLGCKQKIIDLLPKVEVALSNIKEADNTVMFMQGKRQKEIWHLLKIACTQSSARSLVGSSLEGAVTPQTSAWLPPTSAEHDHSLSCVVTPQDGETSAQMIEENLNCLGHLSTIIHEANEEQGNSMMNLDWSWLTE
T1 sequence (Q9Y6K9 whole entry partner): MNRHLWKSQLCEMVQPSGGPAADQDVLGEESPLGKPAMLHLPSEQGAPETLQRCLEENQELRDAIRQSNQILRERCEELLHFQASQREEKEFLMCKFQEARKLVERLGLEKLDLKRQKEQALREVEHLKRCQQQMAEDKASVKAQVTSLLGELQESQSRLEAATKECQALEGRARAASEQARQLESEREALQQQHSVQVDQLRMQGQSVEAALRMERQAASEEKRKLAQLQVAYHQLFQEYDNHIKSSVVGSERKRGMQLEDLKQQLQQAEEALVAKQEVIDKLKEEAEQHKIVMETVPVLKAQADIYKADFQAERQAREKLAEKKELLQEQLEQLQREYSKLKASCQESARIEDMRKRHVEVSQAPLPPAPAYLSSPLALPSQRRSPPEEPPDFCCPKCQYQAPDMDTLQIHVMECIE
Experimental: Using endogenous IKK complex. IKK was immunoprecipitated from HEK293T cells. 3 petri dishes (100×15 mm, corning) of cells at 70% confluence were induced with 10 nM recombinant TNFα (abcam, #ab9642) for 10 minutes, and then washed twice by cold PBS. The whole-cell extracts were prepared by addition of 1 ml of lysis buffer (50 mM HEPES pH 8, 200 mM NaCl, 0.5% NP-40, 1 mM EDTA, 10 mM KCl, 1 mM DTT, Roche cOmplete™ protease inhibitors cocktail, 50 mM NaF, 50 mM b-glycerophosphate and 1 mM Na orthovanadate) and homogenized by passing through a 21-gauge needle for 5-10 times. After 30 minutes of incubation on ice, the extracts were centrifuged at 11,000 g and at 4° C. The cleared supernatants were incubated with 15 μl of anti-NEMO antibody (Santa Cruz biotech, #F-10) overnight at 4° C. and, then, immunoprecipitated with 150 μl of protein G Sepharose beads (GE, #17-0618-01) for 2 hours at 4° C. […]
Kinase activity reactions were performed in kinase buffer (defined above) using 50 μl immunoprecipitant and 1 μM of purified full-length 6×His-IκBα wt or mutant constructs. […] The reaction products were analysed on a 10% SDS-PAGE gel and Western blotting using anti-phospho-IκBα (Cell Signaling Technology, #9246), anti-IKKβ (cell signaling, #2684s) and anti-6×His (sigma, #SAB4301134) antibodies. The relative amounts of phosphorylated IκBα were quantified using ImageJ.

IKKβ(1-669) EE homodimer = target: T2, IKKβ(1-669) EE homodimer (Homo sapiens, UniProt O14920, S177E/S181E); test: Isothermal titration calorimetry (ITC) of peptide binding to IKKβ homodimer; settings: for N (binding stoichiometry of IKKβ: pep) / TΔS / ΔG / ΔH: 25° C.; for N (binding stoichiometry of IKKβ: pep): 1:1 binding model
T2 construct: a nearly full-length (residues 1-669) and constitutively active (S177E/S181E) mutant construct of human IKKβ; 6×His (followed by TEV site) (N, cleaved yes); made in house; host or cells: Sf21 insect cells (baculovirus)
T2 sequence (O14920 1-669 S177E/S181E): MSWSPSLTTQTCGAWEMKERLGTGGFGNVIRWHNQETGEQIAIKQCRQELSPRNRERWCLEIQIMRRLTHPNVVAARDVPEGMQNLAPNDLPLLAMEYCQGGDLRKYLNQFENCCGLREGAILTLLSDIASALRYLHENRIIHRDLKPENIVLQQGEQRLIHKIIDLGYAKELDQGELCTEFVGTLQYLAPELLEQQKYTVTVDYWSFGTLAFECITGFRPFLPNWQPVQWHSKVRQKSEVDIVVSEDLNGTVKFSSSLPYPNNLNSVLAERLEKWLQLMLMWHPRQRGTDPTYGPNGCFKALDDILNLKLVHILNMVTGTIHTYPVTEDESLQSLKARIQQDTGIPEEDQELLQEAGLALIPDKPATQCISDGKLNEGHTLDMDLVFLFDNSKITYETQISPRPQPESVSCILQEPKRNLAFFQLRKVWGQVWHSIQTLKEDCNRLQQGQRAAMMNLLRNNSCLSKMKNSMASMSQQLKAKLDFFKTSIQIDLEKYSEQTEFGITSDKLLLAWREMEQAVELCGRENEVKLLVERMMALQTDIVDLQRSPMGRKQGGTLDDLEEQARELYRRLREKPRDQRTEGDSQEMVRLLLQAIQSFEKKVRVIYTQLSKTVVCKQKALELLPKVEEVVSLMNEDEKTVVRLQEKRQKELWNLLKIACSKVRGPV
Experimental: All experiments were performed in ITC buffer (20 mM HEPES pH 8.0, 150 mM NaCl, 1 mM TCEP) unless otherwise stated. Purified IKKα(10-667) EE and IKKβ(1-669) EE protein samples were dialyzed overnight against ITC buffer at 4° C. Just before the ITC experiments, IKKα or IKKβ samples were concentrated, incubated at room temperature for 30 minutes and centrifuged at 11000 g to remove eventual precipitate. The final concentrations of IKKα and IKKβ in the sample cell varied between 22 and 50 μM depending on the measurement. HPLC purified synthetic peptides (IκBα pep) comprising residues 297-317 of IκBα were further desalted using a Nap5 (GE Healthcare, #17-0853-01) column equilibrated in milliQ water, lyophilized and then resuspended in ITC buffer. The concentration of peptides in the syringe varied between 220 and 975 μM depending on the measurement.
All ITC measurements were performed using a PEAQ-ITC MALVERN instrument. The titration parameters were set as following: temperature 25° C., reference power 10 μcal/s, feedback=high, stirring speed 750 RPM, initial delay 60 s, first injection 0.4 μl in 0.8 s and the remaining 19 injections were 2 μL in 4 s with 120 s of spacing. The data were fitted to a 1:1 binding model. All data were processed using NITPIC software and global fitting of two datasets was carried out using SEDPHAD.
To evaluate binding affinities, isothermal titration calorimetry (ITC) experiments were performed using a synthetic peptide that comprises the YDDφXφ motif plus the N-terminal acidic patch (residues 297-317, named IκBα pep hereafter) and purified IKKβ(1-669) EE homodimer or an equivalent construct of the IKKα homodimer (i.e. IKKα(10-667) S176E/S180E, named IKKα(10-667) EE hereafter). […] ITC analyses on the IKKα/β heterodimer were prevented by strong aggregation propensity at the concentrations required for these experiments.
All ITC experiments were performed at 25° C. The data were fitted to a 1:1 binding model. N refers to the binding stoichiometry of IKKα/β: pep, meaning that approximately half of total IKKα/β concentration binds pep ligand in agreement with the dimer form of IKKα/β being binding competent. The values for the IKKα interaction with IRF7 pep should be regarded as estimates due to low affinity and weakly exothermic binding, and therefore high experimental error and fitting uncertainty. All data were processed using NITPIC software and global fitting of two datasets was carried out using SEDPHAD.

Row | enhancement of affinity to IKKβ relative to IκBα pep wt (IKKβ(1-669) EE homodimer; ITC) [fold] | Kd (IKKβ(1-669) EE homodimer; ITC, IKKβ, read-out: KD) [µM] | Compound | inhibition of IκBα phosphorylation (Ser32/Ser36) [1] | Kd (IKKβ(1-669) EE homodimer) [µM] | N (binding stoichiometry of IKKβ: pep) (IKKβ(1-669) EE homodimer; ITC) | TΔS (IKKβ(1-669) EE homodimer; ITC, IKKβ) [kcal/mol] | ΔG (IKKβ(1-669) EE homodimer; ITC, IKKβ) [kcal/mol] | ΔH (IKKβ(1-669) EE homodimer; ITC, IKKβ) [kcal/mol]
1 | – | – | CC(C)C[C@H](NC(=O)[C@@H](NC(=O)[C@H](CC(C)C)NC(=O)[C@H](CCCNC(=N)N)NC(=O)[C@H](CCC(N)=O)NC(=O)CNC(=O)CNC(=O)[C@H](Cc1ccccc1)NC(=O)[C@@H](NC(=O)[C@H](CS)NC(=O)[C@H](CC(=O)O)NC(=O)[C@H](CC(=O)O)NC(=O)[C@H](Cc1ccc(O)cc1)NC(=O)[C@@H]1CCCN1C(=O)[C@H](CC(C)C)NC(=O)[C@H](CCC(=O)O)NC(=O)[C@H](CC(=O)O)NC(=O)[C@H](CCC(=O)O)NC(=O)[C@@H](NC(=O)[C@H](Cc1ccccc1)NC(=O)[C@@H](N)CCC(=O)O)[C@@H](C)O)C(C)C)[C@@H](C)O)C(=O)O [IκBα pep] (H-EFTEDELPYDDCVFGGQRLTL-OH; N-terminus and C-terminus assumed) | inhibit IκBα phosphorylation more efficiently than the YD/SS negative control peptide | 40 | 0.58 | -9.78 | -6.00 | -15.8
2 | 15 | 2.6 | CC(C)C[C@H](NC(=O)[C@@H](NC(=O)[C@H](CC(C)C)NC(=O)[C@H](CCCNC(=N)N)NC(=O)[C@H](CCC(N)=O)NC(=O)CNC(=O)CNC(=O)[C@H](Cc1ccccc1)NC(=O)[C@@H](NC(=O)[C@H](CC(C)C)NC(=O)[C@H](CC(=O)O)NC(=O)[C@H](CC(=O)O)NC(=O)[C@H](Cc1ccc(O)cc1)NC(=O)[C@@H]1CCCN1C(=O)[C@H](CC(C)C)NC(=O)[C@H](CCC(=O)O)NC(=O)[C@H](CC(=O)O)NC(=O)[C@H](CCC(=O)O)NC(=O)[C@@H](NC(=O)[C@H](Cc1ccccc1)NC(=O)[C@@H](N)CCC(=O)O)[C@@H](C)O)C(C)C)[C@@H](C)O)C(=O)O [IkBα pep C308L] (H-EFTEDELPYDDLVFGGQRLTL-OH; N-terminus and C-terminus assumed) | inhibit IκBα phosphorylation more efficiently than the YD/SS negative control peptide | – | 0.63 | -4.59 | -7.61 | -12.2

— US20260265321A1, “PEPTIDE AND POLYPEPTIDE INHIBITING THE NF-KB SIGNALING PATHWAY” (Centre National de la Recherche Scientifique, priority 2023, published 2026)
